This assay deals with HPK1 (Homo sapiens (Human), UniProt Q92918). Kind of assay: HPK1 Kinase Binding Assay. On the procedure: A stock solution of 1 mM test compound was prepared in DMSO. The compound plate was prepared by 3-fold and 11-point serial dilutions. 0.1 μL of the compound in DMSO was transferred from the compound plate to the white 384 well polystyrene plates. The assay buffer contained 50 mM HEPES, pH 7.5, 0.01% Tween-20, 5 mM MgCl2, 0.01% BSA, and 5 mM DTT. 5 μl of 4 nM active HPK1 (SignalChem M23-11G) prepared in the buffer was added to the plate. The enzyme concentration given was based on the given stock concentration reported by the vender. 5 μl of 18 nM tracer 222 (ThermoFisher PV6121) and 4 nM LanthaScreen Eu-Anti GST antibody (ThermoFisher PV5595) were added. After one hour incubation at 25° C., the plates were read on a PHERAstar FS plate reader (BMG Labtech). Ki values were determined.
HPK1, sequence (Q92918 1-346): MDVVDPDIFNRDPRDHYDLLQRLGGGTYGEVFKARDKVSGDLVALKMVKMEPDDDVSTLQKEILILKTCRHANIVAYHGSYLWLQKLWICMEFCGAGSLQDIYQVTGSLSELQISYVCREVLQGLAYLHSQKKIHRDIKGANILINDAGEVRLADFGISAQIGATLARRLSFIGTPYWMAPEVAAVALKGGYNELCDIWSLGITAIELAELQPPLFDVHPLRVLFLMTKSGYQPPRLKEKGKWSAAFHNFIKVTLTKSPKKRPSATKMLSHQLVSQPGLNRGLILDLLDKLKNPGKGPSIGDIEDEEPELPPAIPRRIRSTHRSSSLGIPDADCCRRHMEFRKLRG

Each structure is given as a SMILES string. Where only a bound is given, the exact number is not on record here.

The values that follow come from patent US10435405B2, “Pyrazolopyridine compounds and uses thereof” (Incyte Corporation, priority 2016, dated 2019).

`CNC1CCCc2c1cc(F)c(-c1cc3c(-c4cnn(C)c4)n[nH]c3cn1)c2F` (stereo not drawn) [Example 202, 5,7-Difluoro-N-methyl-6-(3-(1-methyl-1H-pyrazol-4-yl)-1H-pyrazolo[3,4-c]pyridin-5-yl)-1,2,3,4-tetrahydronaphthalen-1-amine]: the Ki was at most 100 nM. As for `CCNCc1cc(C)c(-c2cc3c(-c4cnn(C)c4)n[nH]c3cn2)c(F)c1` [Example 176, N-(3-Fluoro-5-methyl-4-(3-(1-methyl-1H-pyrazol-4-yl)-1H-pyrazolo[3,4-c]pyridin-5-yl)benzyl)ethanamine], the figure is at most 100 nM.

Turning to `Cc1cc(NC(=O)CN2CCCC2)cc(F)c1-c1cc2c(-c3cnn(C)c3)n[nH]c2cn1` [Example 80, N-(3-Fluoro-5-methyl-4-(3-(1-methyl-1H-pyrazol-4-yl)-1H-pyrazolo[3,4-c]pyridin-5-yl)phenyl)-2-(pyrrolidin-1-yl)acetamide], the Ki is at most 100 nM. Regarding `COc1cccc(F)c1-c1cc2c(NC(=O)c3ccc(N4CCN(C)CC4)cc3)n[nH]c2cn1` [Example 26, N-(5-(2-Fluoro-6-methoxyphenyl)-1H-pyrazolo[3,4-c]pyridin-3-yl)-4-(4-methylpiperazin-1-yl)benzamide], the inhibitory constant (Ki) is at most 100 nM. As for `CNC(=O)c1cn(-c2n[nH]c3cnc(-c4c(F)cccc4OC)cc23)cn1` [Example 105, 1-(5-(2-Fluoro-6-methoxyphenyl)-1H-pyrazolo[3,4-c]pyridin-3-yl)-N-methyl-1H-imidazole-4-carboxamide], the figure is at most 100 nM; as for `Cc1cc(NC(=O)CN(C)C)cc(Cl)c1-c1cc2c(-c3cnn(C)c3)n[nH]c2cn1` [Example 78, N-(3-Chloro-5-methyl-4-(3-(1-methyl-1H-pyrazol-4-yl)-1H-pyrazolo[3,4-c]pyridin-5-yl)phenyl)-2-(dimethylamino)acetamide], at most 100 nM. The value for `Cc1cccc(F)c1-c1cc2c(NC(=O)c3ccc(N4CCN(C)CC4)cc3N)n[nH]c2cn1` [Example 157, 2-Amino-N-(5-(2-fluoro-6-methylphenyl)-1H-pyrazolo[3,4-c]pyridin-3-yl)-4-(4-methylpiperazin-1-yl)benzamide] was at most 100 nM; that for `CNCCc1cc(F)c(-c2cc3c(-c4cnn(C)c4)n[nH]c3cn2)c(F)c1` [Example 96, 2-(3,5-Difluoro-4-(3-(1-methyl-1H-pyrazol-4-yl)-1H-pyrazolo[3,4-c]pyridin-5-yl)phenyl)-N-methylethanamine] was at most 100 nM; that for `CNCc1cc(C)c(-c2cc3c(-c4ccc(N5CCC(O)C5)nc4)n[nH]c3cn2)c(F)c1` (stereo not drawn) [Example 113, 1-(5-(5-(2-Fluoro-6-methyl-4-((methylamino)methyl)phenyl)-1H-pyrazolo[3,4-c]pyridin-3-yl)pyridin-2-yl)pyrrolidin-3-ol] was at most 100 nM. The compound `CC(C)NC1CC(c2cc(F)c(-c3cc4c(-c5cnn(C)c5)n[nH]c4cn3)c(F)c2)C1` (stereo not drawn) [Example 95, 3-(3,5-Difluoro-4-(3-(1-methyl-1H-pyrazol-4-yl)-1H-pyrazolo[3,4-c]pyridin-5-yl)phenyl)-N-isopropylcyclobutanamine] yielded an inhibition constant (Ki) of at most 100 nM. As for `Cc1cc(NC(=O)CC#N)cc(F)c1-c1cc2c(-c3cnn(C)c3)n[nH]c2cn1` [Example 85, 2-Cyano-N-(3-fluoro-5-methyl-4-(3-(1-methyl-1H-pyrazol-4-yl)-1H-pyrazolo[3,4-c]pyridin-5-yl)phenyl)acetamide], the figure is at most 100 nM; as for `CCc1ccc(C(=O)Nc2n[nH]c3cnc(-c4c(F)cccc4OC)cc23)cc1` [Example 8, 4-Ethyl-N-(5-(2-fluoro-6-methoxyphenyl)-1H-pyrazolo[3,4-c]pyridin-3-yl)benzamide], at most 100 nM; as for `Cc1c(CN2CCC2)ccc(F)c1-c1cc2c(-c3cnn(C)c3)n[nH]c2cn1` [Example 94, 5-(3-(Azetidin-1-ylmethyl)-6-fluoro-2-methylphenyl)-3-(1-methyl-1H-pyrazol-4-yl)-1H-pyrazolo[3,4-c]pyridine], at most 100 nM. As for `CNCc1cc(F)c(-c2cc3c(NC(=O)c4cnn(C)c4)n[nH]c3cn2)c(F)c1` [Example 144, N-(5-(2,6-Difluoro-4-((methylamino)methyl)phenyl)-1H-pyrazolo[3,4-c]pyridin-3-yl)-1-methyl-1H-pyrazole-4-carboxamide], the figure is at most 100 nM; as for `CNCc1cc(C)c(-c2cc3c(-c4cnn(C5CC5)c4)n[nH]c3cn2)c(F)c1` [Example 134, 1-(4-(3-(1-Cyclopropyl-1H-pyrazol-4-yl)-1H-pyrazolo[3,4-c]pyridin-5-yl)-3-fluoro-5-methylphenyl)-N-methylmethanamine], at most 100 nM. As for `Cn1cc(-c2n[nH]c3cnc(-c4c(F)cc(NC(=O)CN5CCC5)cc4OC(F)F)cc23)cn1` [Example 72, 2-(Azetidin-1-yl)-N-(3-(difluoromethoxy)-5-fluoro-4-(3-(1-methyl-1H-pyrazol-4-yl)-1H-pyrazolo[3,4-c]pyridin-5-yl)phenyl)acetamide], the inhibition constant Ki is at most 100 nM.

`Cc1cc(C2CCCCN2)cc(F)c1-c1cc2c(-c3cnn(C4CC4)c3)n[nH]c2cn1` (single isomer, unassigned) [Example 232, 3-(1-Cyclopropyl-1H-pyrazol-4-yl)-5-(2-fluoro-6-methyl-4-(piperidin-2-yl)phenyl)-1H-pyrazolo[3,4-c]pyridine] showed an inhibition constant (Ki) of at most 100 nM. On to `Cn1cc(-c2n[nH]c3cnc(-c4c(F)cc(NC(=O)CN5CC6(CCOCC6)C5)cc4F)cc23)cn1` [Example 69, N-(3,5-Difluoro-4-(3-(1-methyl-1H-pyrazol-4-yl)-1H-pyrazolo[3,4-c]pyridin-5-yl)phenyl)-2-(7-oxa-2-azaspiro[3.5]nonan-2-yl)acetamide], for which the Ki was at most 100 nM. As for `COc1cccc(F)c1-c1cc2c(N3CCc4ccc(C#N)cc4C3)n[nH]c2cn1` [Example 38, 2-(5-(2-Fluoro-6-methoxyphenyl)-1H-pyrazolo[3,4-c]pyridin-3-yl)-1,2,3,4-tetrahydroisoquinoline-7-carbonitrile], the figure is at most 100 nM; as for `CC(C)NCc1cc(F)c(-c2cc3c(NC(=O)c4cccc(N5CCN(C)CC5)c4F)n[nH]c3cn2)c(F)c1` [Example 150, N-(5-(2,6-Difluoro-4-((isopropylamino)methyl)phenyl)-1H-pyrazolo[3,4-c]pyridin-3-yl)-2-fluoro-3-(4-methylpiperazin-1-yl)benzamide], at most 100 nM; as for `CC(=O)NCc1cc(C)c(-c2cc3c(-c4cnn(C)c4)n[nH]c3cn2)c(F)c1` [Example 191, N-(3-Fluoro-5-methyl-4-(3-(1-methyl-1H-pyrazol-4-yl)-1H-pyrazolo[3,4-c]pyridin-5-yl)benzyl)acetamide], at most 100 nM. As for `Cn1cc(C(=O)Nc2cc(F)c(-c3cc4c(-c5cnn(C)c5)n[nH]c4cn3)c(F)c2)cn1` [Example 65, N-(3,5-Difluoro-4-(3-(1-methyl-1H-pyrazol-4-yl)-1H-pyrazolo[3,4-c]pyridin-5-yl)phenyl)-1-methyl-1H-pyrazole-4-carboxamide], the inhibition constant Ki was at most 100 nM. The value for `CCNCc1ccc(F)c(-c2cc3c(-c4cnn(C)c4)n[nH]c3cn2)c1C` [Example 236, N-(4-Fluoro-2-methyl-3-(3-(1-methyl-1H-pyrazol-4-yl)-1H-pyrazolo[3,4-c]pyridin-5-yl)benzyl)ethanamine] was at most 100 nM; that for `CNCc1cc(C)c(-c2cc3c(-c4cnn(C5CCOCC5)c4)n[nH]c3cn2)c(F)c1` [Example 136, 1-(3-Fluoro-5-methyl-4-(3-(1-(tetrahydro-2H-pyran-4-yl)-1H-pyrazol-4-yl)-1H-pyrazolo[3,4-c]pyridin-5-yl)phenyl)-N-methylmethanamine] was at most 100 nM.

Compound `CNCc1cc(F)c(-c2cc3c(-c4cnn(C5CNC5)c4)n[nH]c3cn2)c(F)c1` [Example 162, 1-(4-(3-(1-(Azetidin-3-yl)-1H-pyrazol-4-yl)-1H-pyrazolo[3,4-c]pyridin-5-yl)-3,5-difluorophenyl)-N-methylmethanamine] gave a Ki of at most 100 nM. The value for `CNC1CCc2c1cc(C)c(-c1cc3c(-c4cnn(C)c4)n[nH]c3cn1)c2F` (single isomer, unassigned) [Example 239, 4-Fluoro-N,6-dimethyl-5-(3-(1-methyl-1H-pyrazol-4-yl)-1H-pyrazolo[3,4-c]pyridin-5-yl)-2,3-dihydro-1H-inden-1-amine] was at most 100 nM. As for `COc1cccc(F)c1-c1cc2c(NC(=O)c3ccc(N4CCN(CC(F)(F)F)C(=O)C4)cc3)n[nH]c2cn1` [Example 29, N-(5-(2-Fluoro-6-methoxyphenyl)-1H-pyrazolo[3,4-c]pyridin-3-yl)-4-(3-oxo-4-(2,2,2-trifluoroethyl)piperazin-1-yl)benzamide], the Ki was at most 100 nM. As for `COC(=O)N1CCN(c2ccc(C(=O)Nc3n[nH]c4cnc(-c5c(F)cc(CNC(C)C)cc5F)cc34)cc2)CC1` [Example 147, Methyl 4-(4-(5-(2,6-difluoro-4-((isopropylamino)methyl)phenyl)-1H-pyrazolo[3,4-c]pyridin-3-ylcarbamoyl)phenyl)piperazine-1-carboxylate], the figure is at most 100 nM. As for `Cc1cc(CNCC(F)(F)F)cc(F)c1-c1cc2c(-c3cnn(C)c3)n[nH]c2cn1` [Example 179, 2,2,2-Trifluoro-N-(3-fluoro-5-methyl-4-(3-(1-methyl-1H-pyrazol-4-yl)-1H-pyrazolo[3,4-c]pyridin-5-yl)benzyl)ethanamine], the figure is at most 100 nM; as for `CCN1CCN(c2ccc(C(=O)Nc3n[nH]c4cnc(-c5c(F)cccc5OC)cc34)cc2)CC1` [Example 28, 4-(4-Ethylpiperazin-1-yl)-N-(5-(2-fluoro-6-methoxyphenyl)-1H-pyrazolo[3,4-c]pyridin-3-yl)benzamide], at most 100 nM.

Broadly, the Ki is the equilibrium dissociation constant of an inhibitor or competing ligand from its target. A low value points to higher affinity.
